We go through one molecule from patent US10695310B2, “D-serine treatment for neurological disorders that cause seizures” (Florida State University Research Foundation, Inc., priority 2013, dated 2020).

Test [1] has as its system LIII of the medial entorhinal cortex. Put plainly: Stereological cell count in LIII of the medial entorhinal cortex, Nissl-stained brain slices of pilocarpine treated rats. It counts as in vivo, Sprague-Dawley rats. The protocol:
(§1) Male Sprague-Dawley rats weighing about 200 grams were treated with a single systemic treatment of the cholinergic muscarinic agonist pilocarpine to mimic temporal lobe epilepsy as described by Kumar and Buckmaster in Journal of Neuroscience 26: 4613-4623 (2006), which is incorporated by reference herein. The rats were unilaterally implanted with a brain cannula and allowed to recover for three days prior to being treated with pilocarpine. The pilocarpine dose was 380 mg/kg. Following control of status epilepticus with diazepam and a latent period, 90% of the pilocarpine treated rats developed chronic spontaneous seizures with an underlying pathology that mimicked the kind seen in human patients with temporal lobe epilepsy. After pilocarpine treatment, a test group of rats was administered D-serine and a control group of rats was administered aCSF daily for 12 days. The first administration occurred two hours after pilocarpine treatment. The rats were video-monitored forty hours per week for frank seizure activity for the duration of the infusions. Following the treatment regimen, the rats were euthanized and their brains removed following intra-aortal perfusion with a fixative. Horizontal brain slices 50 micrometers thick from both groups were Nissl-stained for stereological quantification of cell populations in LIII of the medial entorhinal cortex.

The target in test [2] is T1, conventional diheteroemric NMDARs (Rattus norvegicus, UniProt P35439).
T1 construct: effect of D-serine on EPSCs for L1 and Str synapses of rat brains; from tissue; host or cells: rat brain; synaptic currents recorded from single neurons (Str input)
Put plainly: NMDAR-mediated EPSC at Str synapses. It counts as cell-based, Sprague-Dawley rats. The settings on record: 10 and 100 micromolar; pure NMDAR-mediated EPSC, +30 mV. From the text:
(§2) FIG. 6 is a set of graphs showing the effect of D-serine on EPSCs for L1 and Str synapses of rat brains. The left panel depicts the average consecutive records (≤10) of pure NMDAR-mediated EPSC (pharmacologically isolated in a mixture containing NBQX and picrotoxin—PTX 50 micromolar, —to block AMPA-kainite receptors and GABAA-mediated inhibition) evoked in a single neuron (+30 mV) under the indicated conditions. The middle panel depicts the average percentage change in amplitude for both responses and the time course of these changes with D-serine administration times marked by the shaded region on the time plots.
(§3) The NMDARs at L1 inputs are GluN3-containing triheteromeric NMDARS, whereas the NMDARs at Str inputs are conventional diheteroemric NMDARs. To directly investigate Ca(2+)-permeability of NMDARs at L1 and Str synapses of Sprague-Dawley rats, shifts in reversal potential (Erev) of the synaptically activated currents were measured during local perfusion of isosmotic solutions with different extracellular Ca(2+) concentrations.

Another test concerns pilocarpine treated rats. Put plainly: Video-monitored seizure activity in pilocarpine treated rats (temporal lobe epilepsy model), D-serine infused at the medial entorhinal cortex. It counts as in vivo, Sprague-Dawley rats. The procedure: as §1, with “infusions.” for “infusions. Following the treatment regimen, the rats were euthanized and their brains removed following intra-aortal perfusion with a fixative. Horizontal brain slices 50 micrometers thick from both groups were Nissl-stained for stereological quantification of cell populations in LIII of the medial entorhinal cortex.”

Test [3] relates to GluN3-containing triheteromeric NMDARS. Briefly: NMDAR-mediated EPSC at L1 synapses. The settings on record: 10 and 100 micromolar; pure NMDAR-mediated EPSC, +30 mV; suppression greatest at the higher concentration. In kind it is cell-based, Sprague-Dawley rats.
Source text: as §2, §3

As for `N[C@H](CO)C(=O)O` [D-serine], the “Mean est. cell count (left + right)” value in test [1] (LIII of medial entorhinal cortex, after 12 days treatment following pilocarpine, naive control 159 ± 21, vehicle 77 ± 1) is 140 ± 10. The “reduction of cell loss in LIII” value in test [1] (after pilocarpine treatment) is reported as “about 80%”. Besides, in test [1] (left medial entorhinal cortex of cannulated rats, FIG. 3), the “cell loss in LIII from brain slice images” value is “prevented cell loss in LIII”. In test [2], the “effect on Str EPSCs” value was “neither consistent nor statistically significant”. Further, the “percentage of pilocarpine treated rats that developed seizures” value with pilocarpine treated rats (D-serine daily for 12 days, 90% without D-serine) was found to be 25%. This molecule also gave a rats seizure-free in the test on pilocarpine treated rats (pilocarpine treated rats, D-serine daily for 12 days via brain cannula, video-monitored forty hours per week) of 75%. Also, the “effect on L1 EPSCs” value in test [3] is “significantly suppressed”.
